Measured values reported in patent publication EP0013144A1, “Substituted diphenylamine derivatives, compositions and herbicidal uses thereof, and processes for their preparation” (ICI AUSTRALIA LIMITED, priority 1978, dated 1980).

Key:
Assay type in all cases: in vivo
Winter wheat = assay: Pre-emergence herbicidal test, fibre trays (Example 33); conditions: after 21 days
Description: (§1) The compounds were formulated for test by mixing an appropriate amount with 5 ml of an emulsion prepared by diluting 160 ml of a solution containing 21.S g per litre of "Span" 80 and 78.2 g per litre of "Tween" 20 in methylcyclohexanone to 500 ml with water. "Span" 80 is a Trade Mark for a surface-active agent comprising sorbitan monolaurate. "Tween" 20 is a Trade Mark for a surface-active agent comprising a condensate of sorbitan monolaurate with 20 molar proportions of ethylene oxide. Each 5 ml emulsion containing a test compound was'then diluted to 40 ml with water and sprayed on to young pot plants (post-emergence test) of the species named in Table 5 below. Damage to test plants was assessed after 14 days on a scale of 0 to 5 where 0 is 0 to 20% damage and 5 is complete kill. In a test for pre-emergence herbicidal activity, seeds of the test plants were sown in a shallow slit formed in the surface of soil in fibre trays. The surface was then levelled and sprayed, and fresh soil then spread thinly over the sprayed surface. Assessment of herbicidal damage was carried out after 21 days using the same scale of 0 to 5 as the post-emergence test. In both cases the degree of herbicidal damage was assessed by comparison with untreated control plants. A dash (-) means that no experiment was carried out.

Cotton [1] = assay: as above; conditions: after 21 days
Description: as §1

Sugar beet [2] = assay: as above; conditions: after 21 days
Description: as §1

Soy bean [3] = assay: as above; conditions: after 21 days
Description: as §1

Rape = assay: as above; conditions: after 21 days
Description: as §1

Ipomea purpurea [4] = assay: as above; conditions: after 21 days
Description: as §1

Senecio vulgaris = assay: as above; conditions: after 21 days
Description: as §1

Sunflower [5] = assay: Post-emergence herbicidal activity (Example 32); conditions: 3 weeks after spraying
How it was run: (§2)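 Compounds were formulated as emulsifiable concentrates in toluene with surfactants (oils, waxy solids) or ball-milled aqueous suspensions (crystalline solids), then diluted with water. Glasshouse seedlings in soil, grown to about 10 to 12.5 cm, were sprayed. Damage was scored visually after 3 weeks against untreated controls on a 0–3 scale (3+ = 100% kill).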

Ryegrass = assay: Post-emergence herbicidal activity (Example 32); conditions: 3 weeks after spraying
How it was run: as §2

Ipomea [6] = assay: Post-emergence herbicidal activity (Example 32); conditions: 3 weeks after spraying
How it was run: as §2

Mustard [7] = assay: Post-emergence herbicidal activity (Example 32); conditions: 3 weeks after spraying
How it was run: as §2

Japanese millet [8] = assay: Post-emergence herbicidal activity (Example 32); conditions: 3 weeks after spraying
How it was run: as §2

Wheat = assay: Post-emergence herbicidal activity (Example 32); parameters: key: 0-3 scale: 0 = 0-25% damage, 3 = 75-99% kill, 3+ = 100% kill; conditions: 3 weeks after spraying
How it was run: as §2

Chenopodium album = assay: Post-emergence herbicidal test, young pot plants (Example 33); conditions: after 14 days
Description: as §1

Cotton [9] = assay: as above; conditions: after 14 days
Description: as §1

Sugar beet [10] = assay: as above; conditions: after 14 days
Description: as §1

Soy bean [11] = assay: as above; conditions: after 14 days
Description: as §1

Ipomea purpurea [12] = assay: as above; conditions: after 14 days
Description: as §1

Amaranthus retroflexus = assay: as above; conditions: after 14 days
Description: as §1

Sunflower [13] = assay: Pre-emergence herbicidal activity (Example 31); conditions: after three weeks
How it was run: (§3)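 Seeded soil boxes (seeds at 2 cm) were sprayed with water-diluted emulsifiable concentrates or milled suspensions, then held under glass. Three weeks later, visual scoring: 0 = 0–25% damage, 3 = 75–99% kill, 3+ = complete kill; unsprayed duplicate boxes as reference.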

Ipomea [14] = assay: Pre-emergence herbicidal activity (Example 31); conditions: after three weeks
How it was run: as §3

Mustard [15] = assay: Pre-emergence herbicidal activity (Example 31); conditions: after three weeks
How it was run: as §3

Japanese millet [16] = assay: Pre-emergence herbicidal activity (Example 31); conditions: after three weeks
How it was run: as §3

Row | SMILES | damage to plants, Sf (Sunflower [5]; 1 kg/ha) | damage to plants, Sf (Sunflower [5]; 5 kg/ha) | damage to plants, Rg (Ryegrass; 1 kg/ha) | damage to plants, Rg (Ryegrass; 5 kg/ha) | damage to plants, Ip (Ipomea [6]; 1 kg/ha) | damage to plants, Ip (Ipomea [6]; 5 kg/ha) | damage to plants, Ms (Mustard [7]; 1 kg/ha) | damage to plants, Ms (Mustard [7]; 5 kg/ha) | damage to plants, Jm (Japanese millet [8]; 1 kg/ha) | damage to plants, Jm (Japanese millet [8]; 5 kg/ha) | damage to plants, Wh (Wheat; 1 kg/ha) | damage to plants, Wh (Wheat; 5 kg/ha) | damage to plants, Sf (Sunflower [13]; 1 kg/ha) | damage to plants, Sf (Sunflower [13]; 5 kg/ha) | damage to plants, Ip (Ipomea [14]; 1 kg/ha) | damage to plants, Ip (Ipomea [14]; 5 kg/ha) | damage to plants, Ms (Mustard [15]; 1 kg/ha) | damage to plants, Ms (Mustard [15]; 5 kg/ha) | damage to plants, Jm (Japanese millet [16]; 1 kg/ha) | damage to plants, Jm (Japanese millet [16]; 5 kg/ha) | also measured
1 | COC(=O)C(C)Oc1ccc(N(C)c2ccc(Br)cc2[N+](=O)[O-])cc1 (stereo not drawn) [Compound 30] | 0 (0 represents 0 to 25% damage) | 0 (0 represents 0 to 25% damage) | 3+ (3+ represents 100% kill) | 3+ (3+ represents 100% kill) | 0 (0 represents 0 to 25% damage) | 0 (0 represents 0 to 25% damage) | 0 (0 represents 0 to 25% damage) | 0 (0 represents 0 to 25% damage) | 3+ (3+ represents 100% kill) | 3+ (3+ represents 100% kill) | 2 | 3+ (3+ represents 100% kill) | 0 (0 represents from 0 to 25% damage) | 0 (0 represents from 0 to 25% damage) | 0 (0 represents from 0 to 25% damage) | 0 (0 represents from 0 to 25% damage) | 1 | 2 | 1 | 3 (3 represents 75 to 99% kill) | herbicidal damage, Ww (Winter wheat; 2.0 kg/ha): 1; herbicidal damage, Ct (Cotton [1]; 2.0 kg/ha): 0 (0 is 0 to 20% damage); herbicidal damage, Sb (Sugar beet [2]; 2.0 kg/ha): 0 (0 is 0 to 20% damage); herbicidal damage, Sy (Soy bean [3]; 2.0 kg/ha): 0 (0 is 0 to 20% damage); herbicidal damage, Rp (Rape; 2.0 kg/ha): 0 (0 is 0 to 20% damage); herbicidal damage, Ip (Ipomea purpurea [4]; 2.0 kg/ha): 0 (0 is 0 to 20% damage); herbicidal damage, Sn (Senecio vulgaris; 2.0 kg/ha): 2; damage to test plants, Ca (Chenopodium album; 2.0 kg/ha): 0 (0 is 0 to 20% damage); damage to test plants, Ct (Cotton [9]; 2.0 kg/ha): 0 (0 is 0 to 20% damage); damage to test plants, Sb (Sugar beet [10]; 2.0 kg/ha): 0 (0 is 0 to 20% damage); damage to test plants, Sy (Soy bean [11]; 2.0 kg/ha): 2; damage to test plants, Ip (Ipomea purpurea [12]; 2.0 kg/ha): 0 (0 is 0 to 20% damage); damage to test plants, Am (Amaranthus retroflexus; 2.0 kg/ha): 0 (0 is 0 to 20% damage)
2 | COC(=O)C(C)Oc1ccc(Nc2ccc(Cl)cc2[N+](=O)[O-])cc1 (stereo not drawn) [Compound 28] | 0 (0 represents 0 to 25% damage) | 0 (0 represents 0 to 25% damage) | 3+ (3+ represents 100% kill) | 3+ (3+ represents 100% kill) | 0 (0 represents 0 to 25% damage) | 0 (0 represents 0 to 25% damage) | 0 (0 represents 0 to 25% damage) | 0 (0 represents 0 to 25% damage) | 3+ (3+ represents 100% kill) | 3+ (3+ represents 100% kill) | 3 (3 represents 75 to 99% kill) | 3+ (3+ represents 100% kill) | 0 (0 represents from 0 to 25% damage) | 0 (0 represents from 0 to 25% damage) | 0 (0 represents from 0 to 25% damage) | 0 (0 represents from 0 to 25% damage) | 0 (0 represents from 0 to 25% damage) | 0 (0 represents from 0 to 25% damage) | 3+ (3+ represents 100% kill) | 3+ (3+ represents 100% kill) | herbicidal damage, Ww (Winter wheat; 1.0 kg/ha): 2; herbicidal damage, Ct (Cotton [1]; 1.0 kg/ha): 0 (0 is 0 to 20% damage); herbicidal damage, Sb (Sugar beet [2]; 1.0 kg/ha): 0 (0 is 0 to 20% damage); herbicidal damage, Sy (Soy bean [3]; 1.0 kg/ha): 0 (0 is 0 to 20% damage); herbicidal damage, Rp (Rape; 1.0 kg/ha): 0 (0 is 0 to 20% damage); herbicidal damage, Ip (Ipomea purpurea [4]; 1.0 kg/ha): 0 (0 is 0 to 20% damage); herbicidal damage, Sn (Senecio vulgaris; 1.0 kg/ha): 0 (0 is 0 to 20% damage); damage to test plants, Ca (Chenopodium album; 1.0 kg/ha): 0 (0 is 0 to 20% damage); damage to test plants, Ct (Cotton [9]; 1.0 kg/ha): 0 (0 is 0 to 20% damage); damage to test plants, Sb (Sugar beet [10]; 1.0 kg/ha): 1; damage to test plants, Sy (Soy bean [11]; 1.0 kg/ha): 0 (0 is 0 to 20% damage); damage to test plants, Ip (Ipomea purpurea [12]; 1.0 kg/ha): 0 (0 is 0 to 20% damage); damage to test plants, Am (Amaranthus retroflexus; 1.0 kg/ha): 0 (0 is 0 to 20% damage)
3 | COC(=O)C(C)Oc1ccc(N(C)c2ccc(Cl)cc2[N+](=O)[O-])cc1 (stereo not drawn) [Compound 27] | 0 (0 represents 0 to 25% damage) | 0 (0 represents 0 to 25% damage) | 3+ (3+ represents 100% kill) | 3+ (3+ represents 100% kill) | 0 (0 represents 0 to 25% damage) | 0 (0 represents 0 to 25% damage) | 0 (0 represents 0 to 25% damage) | 0 (0 represents 0 to 25% damage) | 3+ (3+ represents 100% kill) | 3+ (3+ represents 100% kill) | 2 | 3+ (3+ represents 100% kill) | 0 (0 represents from 0 to 25% damage) | 0 (0 represents from 0 to 25% damage) | 0 (0 represents from 0 to 25% damage) | 0 (0 represents from 0 to 25% damage) | 0 (0 represents from 0 to 25% damage) | 0 (0 represents from 0 to 25% damage) | 1 | 3 (3 represents 75 to 99% kill) | herbicidal damage, Ww (Winter wheat; 2.0 kg/ha): 1; herbicidal damage, Ct (Cotton [1]; 2.0 kg/ha): 0 (0 is 0 to 20% damage); herbicidal damage, Sb (Sugar beet [2]; 2.0 kg/ha): 0 (0 is 0 to 20% damage); herbicidal damage, Sy (Soy bean [3]; 2.0 kg/ha): 0 (0 is 0 to 20% damage); herbicidal damage, Rp (Rape; 2.0 kg/ha): 0 (0 is 0 to 20% damage); herbicidal damage, Ip (Ipomea purpurea [4]; 2.0 kg/ha): 0 (0 is 0 to 20% damage); herbicidal damage, Sn (Senecio vulgaris; 2.0 kg/ha): 1; damage to test plants, Ca (Chenopodium album; 2.0 kg/ha): 0 (0 is 0 to 20% damage); damage to test plants, Ct (Cotton [9]; 2.0 kg/ha): 0 (0 is 0 to 20% damage); damage to test plants, Sb (Sugar beet [10]; 2.0 kg/ha): 0 (0 is 0 to 20% damage); damage to test plants, Sy (Soy bean [11]; 2.0 kg/ha): 0 (0 is 0 to 20% damage); damage to test plants, Ip (Ipomea purpurea [12]; 2.0 kg/ha): 0 (0 is 0 to 20% damage); damage to test plants, Am (Amaranthus retroflexus; 2.0 kg/ha): 0 (0 is 0 to 20% damage)
